Experimental findings from patent US12459900B2, “Compounds for treating conditions related to oxidative stress” (priority 2021, dated 2025) are described below.

Test [1] can be described thus: DPPH antioxidant (free radical scavenging) assay. In kind it is biochemical. To be noted: duplicate, 5 concentrations, read at 517 nm; read-out: IC50 (DPPH assay, anti-oxidant activity). As for the experimental part: NWD-19, NWD-15, and NWD-14 were evaluated for antioxidant activity using the 2,2-diphenyl-1-picrylhydrazyl (DPPH) assay. The DPPH assay was used to predict antioxidant activities by mechanism in which antioxidants act to inhibit lipid oxidation, so scavenging of DPPH radical and therefore determinate free radical scavenging capacity. The DPPH antioxidant assay kit (Dokindo Molecular Technologies, Inc.) was used, and the plates were read at 517 nm on the BioTek Synergy HT plate reader (Gen5 software). All compounds were tested in duplicate at 5 concentrations to determine the anti-oxidant activity of each compound.

For test [2], the system named is Benzalkonium chloride induced dry eyes. Put plainly: Benzalkonium chloride induced dry eyes in C57BL/6 mice. The class given is in vivo. To be noted: daily topical drops 10 μM from day 8 to day 21 of 0.2% BAC treatment. The method, then: Benzalkonium chloride (BAC) is a commonly used preservative in ophthalmic solutions. However, it has been reported to increase the risk of dry eye disease due to its toxicity on the ocular surface, the conjunctiva, the cornea and even deeper ocular structures. 5 uL 0.2% BAC in mice eyes has been reported to cause dry eye symptoms without affecting aqueous tear production, inflammation, or corneal smoothness (Richard Zhang, et al. Dose-dependent benzalkonium chloride toxicity imparts ocular surface epithelial changes with features of dry eye disease, The Ocular Surface, Volume 18, Issue 1, 2020, Pages 158-169).
Symptoms of dry eye disease were induced in 24 male and female C57/BL6 mice for 21 days using 0.2% daily eye drops of BAC. Daily topical application of NWD-19 at 10 μM concentration started at day 8 post BAC treatment and continued until day 21, whereas the control mice eyes were treated with PBS during this period. […] At pre-dose and subsequently on days 7, 14 and 21 post dose the mice eyes were examined by a veterinary ophthalmologist for corneal lesions and dry eye was also evaluated using a drop of 0.1% fluorescein solution in each treated eye and observation and scoring using a cobalt blue filter. […]

Test [3] deals with CT-26 cells. Nature of the test: Cytotoxicity in CT-26 cancer cell line (cell titer glo 2.0). The class given is cell-based. To be noted: Mus musculus, CT26; overnight incubation, triplicate, 6 concentrations; read-out: EC50 (percent survival, CT-26 cells). The method, then:
The CT-26 cell lines were plated at the appropriate pre-determined plating density in the 96 well plate and allowed to attach for about 16 hrs. After a suitable confluence was ensured (about 70-80%) the media was replaced with fresh media and the test compound was added to the plate in triplicate at 6 concentrations. Appropriate vehicle and positive controls were also added, and the plate was incubated overnight in a CO2 (95%)/O2 (5%) incubator at 37° C. temperature. After incubation the plate was assayed for cytotoxicity using cell titer glo 2.0 assay (Promega) on the BioTek Synergy HT plate reader (Gen5 software).

Test [4] deals with RPE primary cells. Put plainly: TBARS assay in RPE primary cells after AAPH induced oxidative stress. In kind it is cell-based. Particulars: AAPH 10 mM, activity up to 0.078 μM concentration. The method, then:
Primary retinal pigment endothelial cell line (RPE) were plated in appropriate growth medium in a 96 well plate overnight (16-24 hrs). Cells were then treated with NWD-19 at 7 concentrations and incubated overnight. Following incubation all wells were treated with AAPH at 10 mM to induce oxidative stress and incubated overnight. The TBARS assay was then utilized to evaluate the anti-oxidant potential of the compound in the RPE cells at various concentrations.

Test [5] concerns Primary retinal pigment endothelial cell line (RPE). Nature of the test: Protection from AAPH induced oxidative stress in RPE cells (viability, cell titer glo 2.0). In kind it is cell-based. To be noted: 1.25 μM NWD-19 pre-treatment overnight, AAPH 10 mM overnight. The method, then:
Primary retinal pigment endothelial cell line (RPE) were plated in appropriate growth medium in a 96 well plate overnight (16-24 hrs). Once 80-90% confluence was achieved the cells were then treated with NWD-19 at a concentration range of 0.039 uM to 1.25 μM. Appropriate blanks were also added and the plate was incubated overnight in a CO2 (95%)/O2 (5%) incubator at 37° C. temperature. Following incubation all wells were treated with AAPH at 10 mM to induce oxidative stress and incubated overnight. After incubation the plate was assayed for viability using cell titer glo 2.0 assay (Promega).
On the technique in general: In ATP-based viability assays light output follows the ATP content of the culture.

By IC50 is commonly meant the concentration needed to halve the response being measured. For orientation: EC50 means the concentration that produces a half-maximal response. On to `CC1=NN(c2ccccc2)C(=O)C1CCCCCCCCCC[P+](c1ccccc1)(c1ccccc1)c1ccccc1.[Br-]` (stereo not shown) [NWD-19, (10-(3-methyl-5-oxo-1-phenyl-4,5-dihydro-1H-pyrazol-4-yl)decyl) triphenyl phosphonium bromide], for which the IC50 in test [1] was found to be 2100 nM. Besides, the “condition of the eyes (corneal lesions, dry eye fluorescein scoring) compared to vehicle control eyes” value in test [2] is listed as “masked improvement”. In test [3], the EC50 was determined as 9600 nM. Further, the “anti-oxidant activity in TBARS assay (malonaldehyde equivalents)” value in test [4] is “significant anti-oxidant activity”. For the same compound, in test [5], the “cell survival after AAPH induced oxidative stress” value is given as ~50%.
`CC1=NN(c2ccccc2)C(=O)C1CCCC[P+](c1ccccc1)(c1ccccc1)c1ccccc1` (stereo not shown) [NWD-15, (4-(3-methyl-5-oxo-1-phenyl-4,5-dihydro-1H-2l4-pyrazol-4-yl)butyl) triphenyl-phosphonium bromide]: the IC50 in test [1] stood at 2300 nM.
Still for that read-out and setting: the figure for `O=c1cc(CCCC[P+](c2ccccc2)(c2ccccc2)c2ccccc2)[nH]n1-c1ccccc1` [NWD-14, (4-(5-oxo-1-phenyl-2,5-dihydro-1H-pyrazol-3-yl)butyl) triphenyl phosphonium bromide] is 2800 nM.
